Data reported in patent publication US6121512A, “Cytochrome P-450 constructs and method of producing herbicide-resistant transgenic plants” (North Carolina State University, priority 1997, dated 2000).

Legend:
[1] = tested on: excised leaves of transgenic tobacco plant 25/2 progeny (CYP71A10-transformed); assay: In vivo herbicide metabolism assay, excised leaves of CYP71A10-transformed tobacco; set-up: species or system Nicotiana tabacum cv SR1; details: after 14 hours; 1.2 nmol herbicide; standard error in parentheses; four 25/2 plants
Experimental: Seeds from primary transgenic tobacco plants transformed with CYP71A10 and control plants transformed with the pBI121 vector were grown in Petri dishes containing MS salts and 100 μg/ml kanamycin. At five weeks post-seeding, kanamycin-resistant plantlets were transplanted into pots containing soil and grown an additional two weeks. Single leaves of approximately 10 cm^2 in size were excised and their petioles inserted into 100 μl of H2 O containing radiolabeled herbicide. The leaves were placed in a growth chamber maintaining a temperature of 27° C. and incubated until the entire volume of the herbicide solution was drawn up by the transpirational stream of the leaves (about 3 hrs). The leaves were subsequently transferred into an Eppendorf tube containing distilled water and further incubated for a total of 14 hours.
[^14 C]-labeled herbicide was extracted from the leaves by grinding for 5 minutes in 250 μl methanol with a plastic pellet pestle driven by an electric drill. After centrifugation for 3 minutes at 14,000 g, 75μl of the supernatant was spotted on a Whatman K6F silica plate and developed in a solvent system containing chloroforn/ethanol/acetic acid 135:10:15 (v/v/v). The separated herbicide derivatives were visualized using an imaging scanner. Substrate conversion was quantified based on the amount of herbicide absorbed, and the ratios of the parent compound and the produced metabolites determined from the TLC profiles.

[2] = tested on: CYP71A10-transformed tobacco; assay: Herbicide tolerance, seeds germinated on herbicide medium, CYP71A10-transformed tobacco; format: in vivo, Nicotiana tabacum cv SR1; details: 1.0 μM chlortoluron in medium
Experimental: (§1) T1 generation seeds from CYP71A10-transformed tobacco and pBI121-transformed control plants were placed onto Petri dishes containing MS salts and linuron (using its commercial formulation LOROX 50 DF) at active ingredient concentrations ranging from 0.25 to 3.0 μM. Chlortoluron was added at 0, 1.0, 5.0 and 10.0 μM concentrations using a 99.5% pure analytical standard. The Petri dishes were incubated in a growth chamber maintaining a constant temperature of 27° C. and a 16/8 hour light/dark cycle. The phytotoxic effects of the treatments were determined visually by comparison to control plants and plants grown in the absence of the herbicide. All treatments were repeated at least twice.

[3] = tested on: wild-type SR1 plants and pBI121-transformed control tobacco plants; assay: Herbicide tolerance, seeds germinated on herbicide medium, control tobacco; format: in vivo, Nicotiana tabacum cv SR1; details: 1.0 μM chlortoluron in medium
Experimental: as §1

[4] = molecular target: T1, CYP73A1 (trans-cinnamic acid hydroxylase) (Helianthus tuberosus, UniProt Q04468); details: CYP73A1 expressed in yeast, chlortoluron ring-methyl hydroxylation; cited from earlier work
T1 construct: host or cells: yeast
T1 sequence (Q04468 1-505): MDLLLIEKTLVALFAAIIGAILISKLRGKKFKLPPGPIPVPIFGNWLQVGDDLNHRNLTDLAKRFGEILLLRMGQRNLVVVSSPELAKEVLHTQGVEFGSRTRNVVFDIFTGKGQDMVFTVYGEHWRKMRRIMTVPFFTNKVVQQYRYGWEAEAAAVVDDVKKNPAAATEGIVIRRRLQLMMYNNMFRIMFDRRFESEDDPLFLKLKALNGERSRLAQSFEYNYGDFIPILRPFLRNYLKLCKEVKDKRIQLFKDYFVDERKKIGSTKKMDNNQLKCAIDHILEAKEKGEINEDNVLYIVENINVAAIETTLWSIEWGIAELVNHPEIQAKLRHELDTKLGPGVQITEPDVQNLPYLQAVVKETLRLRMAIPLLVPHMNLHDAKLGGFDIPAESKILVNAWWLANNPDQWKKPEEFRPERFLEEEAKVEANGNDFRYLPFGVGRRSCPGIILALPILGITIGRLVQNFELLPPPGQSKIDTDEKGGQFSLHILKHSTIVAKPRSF

Cc1ccc(NC(=O)N(C)C)cc1Cl [Chlortoluron, chlortoluron]
% of herbicide metabolized, CYP71A10-transformed [1]: 85 (8.1) %
growth of the 25/2 plants [2]: modestly inhibited
growth of the control plants [3]: completely arrested
turnover number of the heterologously expressed enzyme [4]: 0.014 /min
